Oligonucleotides are written 5' to 3', each unit as a sugar letter and its base; * is a phosphorothioate linkage, no mark a phosphodiester; rarer units and linkages stand in square brackets, end groups in braces. Plain capitals give the bases only. d = 2'-deoxy (DNA); r = 2'-OH (RNA)
Further: test concentration or dose not given here.

The target in one data set is DENND5A. Briefly: reporter assay of Huesken 2005. As to conditions: siRNA.
“sense rArCrCrUrGrCrCrCrUrUrCrCrUrCrUrCrArArGdTdT / antisense rCrUrUrGrArGrArGrGrArArGrGrGrCrArGrGrUdAdG” showed a normalised inhibition (eCFP-eYFP dual reporter) of 53.2%.
On the same count and under the same terms, the figure for “sense rUrGrArUrCrUrCrCrUrGrGrArArArGrGrArUrCdTdT / antisense rGrArUrCrCrUrUrUrCrCrArGrGrArGrArUrCrAdCdA” is 44.1%.
Same read-out and setting: the figure for “sense rArCrUrGrGrGrGrUrGrArGrCrCrUrGrGrArArAdTdT / antisense rUrUrUrCrCrArGrGrCrUrCrArCrCrCrCrArGrUdTdC” is 37.1%; for “sense rUrCrUrUrUrCrArArUrGrCrCrGrUrCrGrArUrUdTdT / antisense rArArUrCrGrArCrGrGrCrArUrUrGrArArArGrAdCdA” it is 52.7%; for “sense rUrCrArCrUrGrCrCrArArCrCrCrArUrGrGrArUdTdT / antisense rArUrCrCrArUrGrGrGrUrUrGrGrCrArGrUrGrAdAdC” it is 57.8%.
On the same count and under the same terms, the figure for “sense rArUrUrGrCrCrArGrCrCrUrUrUrGrUrGrArUrCdTdT / antisense rGrArUrCrArCrArArArGrGrCrUrGrGrCrArArUdCdA” is 48.5%.
“sense rGrArCrUrGrArArGrGrArGrArArArArUrUrUrUdTdT / antisense rArArArArUrUrUrUrCrUrCrCrUrUrCrArGrUrCdGdT” gave a normalised inhibition (eCFP-eYFP dual reporter) of 90.8%.
Regarding “sense rCrUrUrGrCrCrArCrArGrUrUrCrCrCrCrArArCdTdT / antisense rGrUrUrGrGrGrGrArArCrUrGrUrGrGrCrArArGdTdC”, the normalised inhibition (eCFP-eYFP dual reporter) came to 50.6%.
On the same count and under the same terms, the figure for “sense rGrGrGrCrArUrGrGrArUrGrArUrGrGrArArGrCdTdT / antisense rGrCrUrUrCrCrArUrCrArUrCrCrArUrGrCrCrCdTdT” is 54.4%; for “sense rUrUrGrArGrArArGrArArCrArUrUrCrArArArUdTdT / antisense rArUrUrUrGrArArUrGrUrUrCrUrUrCrUrCrArAdTdG” it is 54.7%.
Take “sense rUrGrCrArArArArCrUrUrUrGrArUrArArArGrCdTdT / antisense rGrCrUrUrUrArUrCrArArArGrUrUrUrUrGrCrAdTdT”: the normalised inhibition (eCFP-eYFP dual reporter) came to 46%.
As to “sense rCrArGrArUrGrUrUrUrGrCrArUrCrUrUrUrCrAdTdT / antisense rUrGrArArArGrArUrGrCrArArArCrArUrCrUrGdGdG”, the normalised inhibition (eCFP-eYFP dual reporter) was 75.3%.
On the same count and under the same terms, the figure for “sense rUrGrCrArGrGrArGrUrUrCrArArCrArUrCrArCdTdT / antisense rGrUrGrArUrGrUrUrGrArArCrUrCrCrUrGrCrAdAdT” is 62.5%.
Still for that read-out and setting: the figure for “sense rCrUrCrCrUrGrUrGrArCrCrArArArCrUrGrCrAdTdT / antisense rUrGrCrArGrUrUrUrGrGrUrCrArCrArGrGrArGdTdG” is 80.5%.
Consider “sense rArGrArGrGrArArUrGrGrGrArArCrArUrUrGrCdTdT / antisense rGrCrArArUrGrUrUrCrCrCrArUrUrCrCrUrCrUdTdG”, for which the normalised inhibition (eCFP-eYFP dual reporter) worked out at 53.6%.
Same read-out and setting: the figure for “sense rArUrGrCrCrArArArUrGrGrCrUrGrGrUrGrGrAdTdT / antisense rUrCrCrArCrCrArGrCrCrArUrUrUrGrGrCrArUdAdC” is 69.5%.
On the same count and under the same terms, the figure for “sense rGrArCrCrCrArGrArUrGrUrUrUrGrCrArUrCrUdTdT / antisense rArGrArUrGrCrArArArCrArUrCrUrGrGrGrUrCdTdC” is 71.9%; for “sense rUrUrCrArUrUrGrArCrArArCrArArArArUrArAdTdT / antisense rUrUrArUrUrUrUrGrUrUrGrUrCrArArUrGrArAdAdG” it is 97.8%; for “sense rUrUrUrGrGrGrUrUrUrGrCrCrCrUrCrArCrArUdTdT / antisense rArUrGrUrGrArGrGrGrCrArArArCrCrCrArArAdTdG” it is 73.4%.
Same read-out and setting: the figure for “sense rCrUrGrArUrCrGrUrArCrCrArArGrCrArArGrAdTdT / antisense rUrCrUrUrGrCrUrUrGrGrUrArCrGrArUrCrArGdAdA” is 54.7%.
Consider “sense rCrUrCrArArGrArUrUrCrCrUrGrGrArGrArCrCdTdT / antisense rGrGrUrCrUrCrCrArGrGrArArUrCrUrUrGrArGdAdG”, for which the normalised inhibition (eCFP-eYFP dual reporter) came to 64.6%.
In turn, “sense rCrUrUrUrCrArArUrGrCrCrGrUrCrGrArUrUrAdTdT / antisense rUrArArUrCrGrArCrGrGrCrArUrUrGrArArArGdAdC” registered a normalised inhibition (eCFP-eYFP dual reporter) of 76.8%.
The substance “sense rCrArUrUrCrArGrArUrCrCrGrGrGrArArGrUrUdTdT / antisense rArArCrUrUrCrCrCrGrGrArUrCrUrGrArArUrGdTdT” showed a normalised inhibition (eCFP-eYFP dual reporter) of 74.7%.
In the case of “sense rUrUrCrCrUrArCrGrArGrCrUrUrCrUrUrArArGdTdT / antisense rCrUrUrArArGrArArGrCrUrCrGrUrArGrGrArAdTdG”, the normalised inhibition (eCFP-eYFP dual reporter) turned out to be 59.8%.
Same read-out and setting: the figure for “sense rGrArUrGrGrUrGrArArGrArCrArCrUrCrCrUrGdTdT / antisense rCrArGrGrArGrUrGrUrCrUrUrCrArCrCrArUrCdCdT” is 82.9%.
For the substance “sense rGrGrCrUrGrGrCrArUrUrCrArArGrArCrCrCrAdTdT / antisense rUrGrGrGrUrCrUrUrGrArArUrGrCrCrArGrCrCdCdT”, the normalised inhibition (eCFP-eYFP dual reporter) is 75.8%.
In turn, “sense rGrUrUrUrArGrArUrArArUrGrArCrCrArGrArGdTdT / antisense rCrUrCrUrGrGrUrCrArUrUrArUrCrUrArArArCdGdC” had a normalised inhibition (eCFP-eYFP dual reporter) of 51.4%.
Still for that read-out and setting: the figure for “sense rGrCrArArUrArArGrGrArUrCrUrCrArArArGrUdTdT / antisense rArCrUrUrUrGrArGrArUrCrCrUrUrArUrUrGrCdTdG” is 66.2%; for “sense rUrGrCrCrGrCrArArUrArArGrArCrCrArArGrAdTdT / antisense rUrCrUrUrGrGrUrCrUrUrArUrUrGrCrGrGrCrAdTdT” it is 69.3%.

The next data set concerns the target P2RX3. Briefly: reporter assay of Huesken 2005. As to conditions: siRNA.
For “sense rUrGrUrCrUrGrArUrUrArCrGrUrGrArCrGrCrCdTdT / antisense rGrGrCrGrUrCrArCrGrUrArArUrCrArGrArCrAdCdA”, the normalised inhibition (eCFP-eYFP dual reporter) was found to be 43.1%.
Turning to “sense rArGrUrCrGrGrUrGrGrUrUrGrUrGrArArGrArGdTdT / antisense rCrUrCrUrUrCrArCrArArCrCrArCrCrGrArCrUdTdG”, the normalised inhibition (eCFP-eYFP dual reporter) was 64.9%.
For the substance “sense rArUrCrArArGrArArCrArGrCrArUrCrCrGrUrUdTdT / antisense rArArCrGrGrArUrGrCrUrGrUrUrCrUrUrGrArUdGdA”, the normalised inhibition (eCFP-eYFP dual reporter) turned out to be 70.6%.
The same measure, in the same setting: the figure for “sense rArGrGrUrGrGrArCrArCrArGrUrGrGrArArArCdTdT / antisense rGrUrUrUrCrCrArCrUrGrUrGrUrCrCrArCrCrUdCdC” is 91.4%; for “sense rCrCrGrGrCrUrCrGrArCrArGrCrGrUrUrUrCrUdTdT / antisense rArGrArArArCrGrCrUrGrUrCrGrArGrCrCrGrGdGdT” it is 98%.
On the same count and under the same terms, the figure for “sense rArCrUrUrCrArCrUrArUrUrUrUrCrArUrCrArAdTdT / antisense rUrUrGrArUrGrArArArArUrArGrUrGrArArGrUdTdC” is 92.9%; for “sense rCrGrUrGrArArCrUrArCrArGrCrUrCrUrGrUrGdTdT / antisense rCrArCrArGrArGrCrUrGrUrArGrUrUrCrArCrGdCdA” it is 42%; for “sense rUrGrCrCrGrCrUrUrCrCrArCrCrCrGrGrArCrAdTdT / antisense rUrGrUrCrCrGrGrGrUrGrGrArArGrCrGrGrCrAdGdG” it is 93.7%.
Same read-out and setting: the figure for “sense rCrUrGrGrArCrCrArUrCrGrGrGrArUrCrArUrCdTdT / antisense rGrArUrGrArUrCrCrCrGrArUrGrGrUrCrCrArGdCdT” is 60.7%; for “sense rCrArUrCrArArCrCrGrArGrUrArGrUrUrCrArGdTdT / antisense rCrUrGrArArCrUrArCrUrCrGrGrUrUrGrArUrGdAdT” it is 74.7%; for “sense rUrUrCrArGrCrUrUrCrUrGrArUrCrArUrCrUrCdTdT / antisense rGrArGrArUrGrArUrCrArGrArArGrCrUrGrArAdCdT” it is 46.8%.
Take “sense rArCrArGrCrUrCrUrGrUrGrCrUrCrCrGrGrArCdTdT / antisense rGrUrCrCrGrGrArGrCrArCrArGrArGrCrUrGrUdAdG”: the normalised inhibition (eCFP-eYFP dual reporter) was found to be 59.2%.
“sense rUrCrUrUrGrCrGrGrGrUrArGrGrGrGrArCrGrUdTdT / antisense rArCrGrUrCrCrCrCrUrArCrCrCrGrCrArArGrAdTdG” registered a normalised inhibition (eCFP-eYFP dual reporter) of 75.9%.
Still for that read-out and setting: the figure for “sense rGrGrCrCrGrArCrCrArGrUrArCrArArArGrCrCdTdT / antisense rGrGrCrUrUrUrGrUrArCrUrGrGrUrCrGrGrCrCdCdC” is 68%; for “sense rGrGrArArArCrGrCrCrCrArUrCrArUrGrArUrGdTdT / antisense rCrArUrCrArUrGrArUrGrGrGrCrGrUrUrUrCrCdAdC” it is 74.8%; for “sense rArCrUrUrUrGrUrArGrGrGrUrGrGrGrUrUrUrUdTdT / antisense rArArArArCrCrCrArCrCrCrUrArCrArArArGrUdAdG” it is 89.4%.
Same read-out and setting: the figure for “sense rGrGrCrCrGrCrUrGrCrGrUrGrArArCrUrArCrAdTdT / antisense rUrGrUrArGrUrUrCrArCrGrCrArGrCrGrGrCrCdAdG” is 72.3%; for “sense rArCrGrCrCrArArCrArGrArGrUrCrArUrGrGrAdTdT / antisense rUrCrCrArUrGrArCrUrCrUrGrUrUrGrGrCrGrUdAdG” it is 89.2%; for “sense rCrCrArCrArGrCrGrGrArGrArArGrCrArGrUrCdTdT / antisense rGrArCrUrGrCrUrUrCrUrCrCrGrCrUrGrUrGrGdTdC” it is 62.7%.
“sense rArGrUrArCrArArArGrCrCrArArGrArArGrUrUdTdT / antisense rArArCrUrUrCrUrUrGrGrCrUrUrUrGrUrArCrUdGdG” registered a normalised inhibition (eCFP-eYFP dual reporter) of 99.5%.

For the origin of these results see the OligoGym collection.
